Where a name gives a salt, the structure may show the parent alone.
Assays:
COL1A1 promotor = COL1A1 promotor single luciferase reporter gene model in LX-2 (LX2-COL) cells; format: cell-based, human; conditions: LX-2 cells treated simultaneously with TGFβ1 and compound; for inhibition at 40 µM: Homo sapiens, read-out: Inhibition Percentage (inhibition rate of COL1A1 promotor's activity in LX2 cells)
α-SMA protein = α-SMA protein level by western blot in LX-2 cells; format: cell-based; conditions: Homo sapiens, TGFβ1 2 ng/mL, read-out: α-SMA protein level inhibition rate
Method: (§1) α-SMA is a more commonly recognized indicator for liver fibrosis, and it could be induced by a stimulation of TGFβ1 [22], therefore, the amounts of α-SMA were also evaluated.
(§2) LX-2 cells were cultured as described above. Briefly, cells were washed with phosphate-buffered saline (PBS) and were lysed in radioimmunoprecipitation assay (RIPA) lysis for 30 min in 4 °C; the supernatant was collected after centrifugation at 12,000× g, 4 °C for 15 min. Equal amounts of protein were quantified with Bradford assay, separated by SDS-PAGE and transferred to polyvinylidene difluoride membrane. The membranes were blocked for one hour at room temperature in PBST containing 5% milk and probed with specific first antibodies overnight at room temperature. Membrane was washed 3 times by PBST, followed by horseradish peroxidase-conjugated secondary antibodies and GAPDH. The proteins were visualized using chemiluminescence reagents.

COL1A1 mRNA = COL1A1 mRNA level by real-time PCR in TGFβ1-stimulated LX-2 cells; format: cell-based, human; conditions: 80 μM, TGFβ1 2 ng/mL
Method: (§3) Next, compounds 6i, 6l and 6n were chosen as the key compounds to verify their inhibitory effects against COL1A1. LX-2 cells were stimulated with TGFβ1 (2 ng/mL), and then treated with compounds 6i, 6l and 6n (80 μM) respectively, taking 1 as the control. Their anti-COL1A1 effects were evaluated on RNA level by real-time PCR amplification. […] Then their anti-COL1A1 effects were investigated on the protein level by western blot assays.
(§4) LX-2 cells were seeded in 6-well plate, cultured in DMEM, containing 10% fetal bovine serum (FBS) in a 5% CO2 atmosphere at 37 °C. And serum-free culture was required until the cells at 90–95% confluence. After 24 h, cells were treated with TGFβ1 (2 ng/mL) and matrinic derivatives (80 μM) for 24 h. Total RNA from the LX-2 cells was extracted using Trizol reagent, purified by NucleoSpin RNA Clean-up. Reverse transcription was performed with a Transcriptor first strand cDNA synthesis kit. The cDNA was then analysis by ABI 7500 Fast Real-Time PCR System (ThermoFisher Scientific, Singapore) using TaqMan probes of TGFβ1, COL1A1, α-SMA, and GAPDH (sequence reserved by ABI, Foster City, CA ,USA) and FastStart Universal Probe master mix (Roche, Indianapolis, IN, USA).

α-SMA mRNA = α-SMA mRNA level by real-time PCR in TGFβ1-stimulated LX-2 cells; format: cell-based, human; conditions: 80 μM, TGFβ1 2 ng/mL
Method: as §1, §4

COL1A1 protein = COL1A1 protein level by western blot in LX-2 cells; format: cell-based; conditions: Homo sapiens, TGFβ1 2 ng/mL, read-out: COL1A1 protein level inhibition rate
Method: as §3, §2

[1] = MTT cytotoxicity / cell survival assay; format: cell-based; conditions: human, HepG2 cells, read-out: CC50 (cytotoxic concentration required to inhibit HepG2 cell growth by 50%)
Method: A single luciferase reporter gene detection model was applied to screen the inhibitory effects towards COL1A1 promotor of all target compounds in human hepatic stellate LX-2 cells at the concentration of 40 μM, taking EGCG and compound 1 as the positive controls. The LX2-COL monoclone cell line was treated simultaneously with TGFβ1 and a target compound [13]. The cytotoxicity was determined using MTT assay in HepG2 cells.
The cell survival was evaluated by MTT assay. HepG2 cells were seeded at density of 6 × 10^3 cells/well in 96-well plate. Cells were treated with various concentrations of matrinic derivate until the cells at 50% confluence. After 24 h of incubation, 20 µL of the MTT (5 mg/mL) solution was added into each plate and incubated for 4 h at 37 °C, 5% CO2. Subsequently, the culture supernatant was replaced with 150 µL DMSO to dissolve the formazan crystal. The absorbance at 570 nm was measured using a microplate reader (ELx800, BioTek Instruments, Winooski, VT, USA).

[2] = test system: Smad2 / phosphorylated Smad2 (TGFβ/Smad pathway); assay: Smad2 and p-Smad2 levels by western blot in LX-2 cells; format: cell-based, human
Method: Considering the key role of TGFβ/Smad pathway in activating COL1A1, the effects of the three compounds on Smad and phosphorylated Smad were then evaluated.
as §2

SMILES	melting point	inhibition at 40 µM (COL1A1 promotor) [%]	further results
CNc1nnc(CCCC2C3CCCN4CCCC(CN2S(=O)(=O)c2ccc(C)cc2)C34)s1 (stereo not drawn) [Compound 6b, 12-N-p-Mmethlybenzenesulfonyl-3′-(N-methyl-5-amino-1,3,4-thiadiazol-2-yl)-matrinic propane]	169 to 170 °C	12.8	–
Cc1ccc(S(=O)(=O)N2CC3CCCN4CCCC(C34)C2CCCc2nnc(NC(C)C)s2)cc1 (stereo not drawn) [Compound 6c, 12-N-p-Methylbenzenesulfonyl-3′-(N-iso-propyl-5-amino-1,3,4-thiadiazol-2-yl)-matrinic propane]	193 to 194 °C	-84.2	–
Nc1nnc(CCCC2C3CCCN4CCCC(CN2Cc2ccc(Br)cc2)C34)s1 (stereo not drawn) [Compound 6o, 12-N-p-Bromobenzyl-3′-(5-amino-1,3,4-thiadiazol-2-yl)-matrinic propane]	193 to 194 °C	7.8	–
Cc1ccc(S(=O)(=O)N2CC3CCCN4CCCC(C34)C2CCCC(=O)O)cc1 (stereo not drawn) [Compound 1, 12-N-p-Methylbenzenesulfonyl matrinic acid]	239 to 240 °C	18.5	inhibition at 80 µM (α-SMA protein): 28.9%; COL1A1 mRNA level inhibitory rate (COL1A1 mRNA): 41.9%; α-SMA mRNA level inhibitory rate (α-SMA mRNA): 69.7%; inhibition at 80 µM (COL1A1 protein): 16.2%; CC50 at 24 h [1]: > 320 µM
CC(=O)Nc1nnc(CCCC2C3CCCN4CCCC(CN2Cc2ccc(C)cc2)C34)s1 (stereo not drawn) [Compound 7d, 12-N-p-Methylbenzyl-3′-(5-acetylamino-1,3,4-thiadiazol-2-yl)-matrinic propane]	226 °C (dec.)	27	–
Cc1ccc(CN2CC3CCCN4CCCC(C2CCCC(=O)O)C34)cc1 (stereo not drawn) [Compound 5c, 12-N-p-Methylbenzyl matrinic acid]	106 to 108 °C	-116	–
Cc1ccc(CN2CC3CCCN4CCCC(C2CCCc2nnc(N)s2)C34)cc1 (stereo not drawn) [Compound 6l, 12-N-p-Methylbenzyl-3′-(5-amino-1,3,4-thiadiazol-2-yl)-matrinic propane]	167 to 168 °C	38.7	inhibition at 80 µM (α-SMA protein): 93.8%; α-SMA mRNA level inhibitory rate (α-SMA mRNA): 82.5%; inhibition at 80 µM (COL1A1 protein): 99.3%; CC50 at 24 h [1]: > 320 µM; Effect on Smad level [2]: did not affect the Smad level; Effect on phosphorylation level of Smad2 (in words) [2]: repressed the phosphorylation level of Smad2 significantly
CNc1nnc(CCCC2C3CCCN4CCCC(CN2Cc2ccccc2)C34)s1 (stereo not drawn) [Compound 6j, 12-N-Benzyl-3′-(N-methyl-5-amino-1,3,4-thiadiazol-2-yl)-matrinic propane]	137 to 138 °C	29.5	–
CN(C)c1nnc(CCCC2C3CCCN4CCCC(CN2Cc2ccccc2)C34)s1 (stereo not drawn) (as salt: hydrochloride) [Compound 6k, 12-N-Benzyl-3′-(N,N-dimethyl-5-amino-1,3,4-thiadiazol-2-yl)-matrinic propane hydrochloride]	189 to 190 °C	–	–
CN(C)c1nnc(CCCC2C3CCCN4CCCC(CN2S(=O)(=O)c2ccc(C(F)(F)F)cc2)C34)s1 (stereo not drawn) [Compound 6h, 12-N-p-Trifluoromethlybenzenesulfonyl-3′-(N,N-dimethyl-5-amino-1,3,4-thiadiazol-2-yl)-matrinic propane]	147 to 148 °C	-35.2	–
CNc1nnc(CCCC2C3CCCN4CCCC(CN2Cc2ccc(C)cc2)C34)s1 (stereo not drawn) [Compound 6m, 12-N-p-Methylbenzyl-3′-(N-methyl-5-amino-1,3,4-thiadiazol-2-yl)-matrinic propane]	163 to 164 °C	-29.6	–
Cc1ccc(S(=O)(=O)N2CC3CCCN4CCCC(C34)C2CCCc2nnc(N)s2)cc1 (stereo not drawn) [Compound 6a, 12-N-p-Methlybenzenesulfonyl-3′-(5-amino-1,3,4-thiadiazol-2-yl)-matrinic propane]	237 °C (dec.)	21.2	CC50 at 24 h [1]: > 320 µM
CN(C)c1nnc(CCCC2C3CCCN4CCCC(CN2Cc2ccccc2)C34)s1 (stereo not drawn) [Compound 6k, 12-N-Benzyl-3′-(N,N-dimethyl-5-amino-1,3,4-thiadiazol-2-yl)-matrinic propane hydrochloride]	–	15.2	–
O=C(O[C@@H]1Cc2c(O)cc(O)cc2O[C@@H]1c1cc(O)c(O)c(O)c1)c1cc(O)c(O)c(O)c1 [EGCG, epigallocatechin gallate, reference compound]	–	–	Inhibition Percentage (inhibition rate of COL1A1 promotor's activity in LX2 cells) (COL1A1 promotor; 40 μM): 27.5% ± 7.9%
Nc1nnc(CCCC2C3CCCN4CCCC(CN2S(=O)(=O)c2ccc(C(F)(F)F)cc2)C34)s1 (stereo not drawn) [Compound 6f, 12-N-p-Ttrifluoromethlybenzenesulfonyl-3′-(5-amino-1,3,4-thiadiazol-2-yl)-matrinic propane]	206 °C (dec.)	-19	–
CC(=O)Nc1nnc(CCCC2C3CCCN4CCCC(CN2S(=O)(=O)c2ccc(C(F)(F)F)cc2)C34)s1 (stereo not drawn) [Compound 7b, 12-N-p-Trifluoromethlybenzenesulfonyl-3′-(5-acetylamino-1,3,4-thiadiazol-2-yl)-matrinic propane]	197 °C (dec.)	-6	–
O=C(O)CCCC1C2CCCN3CCCC(CN1Cc1ccc(Br)cc1)C23 (stereo not drawn) [Compound 5d, 12-N-p-Bromobenzyl matrinic acid]	134 to 135 °C	6.4	–
CNc1nnc(CCCC2C3CCCN4CCCC(CN2S(=O)(=O)c2ccc(C(F)(F)F)cc2)C34)s1 (stereo not drawn) [Compound 6g, 12-N-p-Trifluoromethlybenzenesulfonyl-3′-(N-methyl-5-amino-1,3,4-thiadiazol-2-yl)-matrinic propane]	181 °C (dec.)	6.1	–
O=C(O)CCCC1C2CCCN3CCCC(CN1Cc1ccccc1)C23 (stereo not drawn) [Compound 5b, 12-N-Benzyl matrinic acid]	95 to 96 °C	-33.6	–
O=C(O)CCCC1C2CCCN3CCCC(CN1S(=O)(=O)c1ccc(C(F)(F)F)cc1)C23 (stereo not drawn) [Compound 5a]	–	-3.7	–
Cc1ccc(S(=O)(=O)N2CC3CCCN4CCCC(C34)C2CCCc2nnc(N(C)C)s2)cc1 (stereo not drawn) [Compound 6d, 12-N-p-Methylbenzenesulfonyl-3′-(N,N-dimethyl-5-amino-1,3,4-thiadiazol-2-yl)-matrinic propane]	142 to 143 °C	-36.7	–
CC(=O)Nc1nnc(CCCC2C3CCCN4CCCC(CN2S(=O)(=O)c2ccc(C)cc2)C34)s1 (stereo not drawn) [Compound 7a, 12-N-p-Methylblenzenesulfonyl-3′-(5-acetylamino-1,3,4-thiadiazol-2-yl)-matrinic propane]	273 °C (dec.)	33.9	–
CC(=O)Nc1nnc(CCCC2C3CCCN4CCCC(CN2Cc2ccccc2)C34)s1 (stereo not drawn) [Compound 7c, 12-N-Benzyl-3′-(5-acetylamino-1,3,4-thiadiazol-2-yl)-matrinic propane]	188 to 189 °C	12.9	–
